In ChEMBL document CHEMBL1144274, “Novel spiroanellated 1,2,4-trioxanes with high in vitro antimalarial activities” (Bioorg Med Chem Lett, 2005) one finds IC50 data, which are given here for eight compounds.

≈ marks a conversion by molar mass, not a printed value.

As a reminder, the IC50 is the point on the concentration scale where inhibition reaches its midpoint. Read a low IC50 as greater potency in that assay.

The subject of test [1] is Plasmodium falciparum. In words: In vitro inhibition of Plasmodium falciparum K1 (0.2253 ug/mL). The class given is functional, organism-based.
Test [2] is described as follows: In vitro cytotoxicity against mammalian L-6 cell line. The class given is functional, cell-based. The note with it: L6.
Test [3] concerns Plasmodium falciparum. Nature of the test: In vitro inhibition of Plasmodium falciparum K1 (0.0088 ug/mL). The class given is functional, organism-based.
Test [4] relates to Plasmodium falciparum. In words: In vitro inhibition of Plasmodium falciparum K1 (0.0013 ug/mL). The class given is functional, organism-based.
The subject of test [5] is Plasmodium falciparum. Nature of the test: In vitro inhibition of Plasmodium falciparum K1 (0.0024 ug/mL). Format: functional, organism-based.
The subject of test [6] is Plasmodium falciparum. In words: In vitro inhibition of Plasmodium falciparum K1 (0.00054 ug/mL). The class given is functional, organism-based.
Test [7] concerns Plasmodium falciparum. Nature of the test: In vitro inhibition of Plasmodium falciparum K1 (0.00065 ug/mL). Format: functional, organism-based.
The test system of test [8] is Plasmodium falciparum. Nature of the test: In vitro inhibition of Plasmodium falciparum K1 (0.0008 ug/mL). The class given is functional, organism-based.

Consider `C=C(C)[C@@H]1OOC(C)(C)O[C@H]1C`, for which the half-inhibitory concentration (IC50) in test [1] was determined as 1310 nM.
Regarding `C=C(C)[C@@H]1OOC2(CCCC2)O[C@H]1C(C)(C)C`, the IC50 was 3.7 µg/mL (≈ 15.4 µM) in test [2] and 36.6 nM in test [3].
As to `C=C(C)C1OO[C@]2(O[C@H]1C)[C@H]1CC3C[C@@H](C1)C[C@H]2C3` (stereo partly drawn), the IC50 is 1.7 µg/mL (≈ 6.43 µM) in test [2] and 4.9 nM in test [4].
`C=C(C)[C@@H]1OOC2(CCCC2)O[C@H]1C(C)C`: the results for the half-maximal inhibitory concentration (IC50) in test [2] and in test [5] were 0.82 µg/mL (≈ 3.62 µM) and 10.6 nM, respectively.
Turning to `C=C(C)C1OO[C@]2(O[C@H]1C1CC1)[C@H]1CC3C[C@@H](C1)C[C@H]2C3` (stereo partly drawn), the results for the concentration for half-maximal inhibition (IC50) in test [2] and in test [6] were 0.74 µg/mL (≈ 2.55 µM) and 1.9 nM, respectively.
With `C=C(C)[C@@H]1OOC2(CCCCC2)O[C@H]1C`, the half-inhibitory concentration (IC50) was 0.46 µg/mL (≈ 2.17 µM) in test [2] and 3.1 nM in test [7].
`O[C@H](c1cc(C(F)(F)F)nc2c(C(F)(F)F)cccc12)[C@@H]1CCCCN1` [MEFLOQUINE] registered an IC50 in test [2] of 1.9 µg/mL (≈ 5.02 µM).
In test [8], `C[C@@H]1CC[C@H]2[C@@H](C)C(=O)O[C@@H]3O[C@@]4(C)CC[C@@H]1[C@]32OO4` [ARTEMISININ] came in with an IC50 of 2.8 nM.
